Source: patent US20070196514A1, “Prostate cancer treatment with glycogen synthase kinase-3beta inhibitors” (priority 2006, published 2007)

Legend:
PC-3 cells [1] = assay: MTT cell growth assay; format: cell-based, human; details: equimolecular concentrations of LiCl, NaCl, KCl, three days
Method: (§1) For MTT-based cell growth assays, cells seeded in 96-well plates were serum-starved for 48 hours, and were then treated with vehicle or different reagents for different time periods as indicated in the figures. MTT assay were carried out using a pre-assembled kit (Sigma) according to the manufacturer's manual.
(§2) To rule out the eventual intervention of the chloride anion and the osmotic disturbance, the effect of LiCl was compared with sodium chloride (“NaCl”) and potassium chloride (“KCl”) at equimolecular concentrations in both LNCaP and PC-3 cell lines. In addition, the androgen-insensitive C4-2 cell line was included. To easily handle the experiments while multiple comparisons were taken in place, a MTT assay was used to assess cell growth.

C4-2 cells [2] = assay: MTT cell growth assay; format: cell-based, human; details: equimolecular concentrations of LiCl, NaCl, KCl, three days
Method: as §1, §2

LNCaP cells [3] = assay: MTT cell growth assay; format: cell-based, human; details: three days; for cell growth inhibition (MTT): equimolecular concentrations of LiCl, NaCl, KCl; for cell growth (MTT): increasing doses in full culture medium, dose-responsive
Method: as §1, §2
Lastly, two GSK-3β-specific small chemical inhibitors, SB216763 and BIO, were used to verify that LiCl-induced suppression of cell growth is due to GSK-3β inhibition. LNCaP cells were seeded as above and then treated with increasing doses of the inhibitors in a full culture medium. Cell growth was assessed three days later by MTT assay.

LNCaP cells [4] = assay: Western blot of cell cycle-related proteins; format: cell-based, human; details: BIO at different doses for 24 hours
Method: Western blot was carried out as described previously (Liao 2004, Liao 2003, and Liao 2005). Briefly, cells were pellets and lysed in radio-immunoprecipitation assay (“RIPA”) buffer containing protease inhibitors (Half™ Protease Inhibitor Cocktail Kit, PIERCE, Rockford, Ill.). Proteins were separated on SDS-PAGE gels and transferred to Immuno-Blot™ PVDF membrane (BIO-RAD, Hercules, Calif.). Membranes were blocked in a tris-buffered solution plus Tween 20 (“TBST”) solution with 5% nonfat dry milk and incubated with primary antibodies overnight at 4° C. Immunoreactive signals were detected by horseradish peroxidase-conjugated secondary antibodies (Santa Cruz Biotech., Santa Cruz, Calif.) followed by SuperSingnal® WestFeml® Maximum Sensitivity Substrate (PIERCE).
To verify those alterations at a protein level, two series experiments were conducted using Western blot technique. The first involved a time-course experiment. After serum starvation, LNCaP cells were left untreated or treated as before with LiCl for up to 24 hours. Cells were harvested at 18-24 hours.
Next, a dose-response experiment was performed. Following serum starvation for 24 hours, LNCaP cells were treated with BIO at different doses for another 24 hours. Control cells received the vehicle as treatment.

LNCaP-BclxL xenografts = assay: LNCaP-BclxL xenograft model; format: in vivo, castrated nude mice
Method: All animal studies were conducted under an approved Institutional Animal Care and Use Committee protocol. Single cell suspensions (2×10^6 cells in 0.1 ml of RPMI1640 medium plus 10% FBS) were inoculated subcutaneously (s.c.) into the rear flanks (two sites/mouse) of 6 to 7 weeks old male nude mice (Charles River, Wilmington, Mass.). For protocol A, mice were randomly divided into two groups (5 animals each). On next day after inoculation, one group of animals received i.p. injection of LiCl at a daily dose of 2 mg/kg body weight. LiCl was dissolved in PBS. The control groups of animals received PBS alone in the same volume. Xenograft development and growth were monitored for 8 weeks. The tumor dimensions were measured twice a week. The tumor volume was calculated by the formula of L×W×H×0.5236 (Miyake 2001). At the end of treatment, xenograft tumors were extirpated, and the final tumor size and weight, as well as animal weight were measured. For protocol B, treatment began until tumor became palpable or 50 mm^3 in size, and LiCl or PBS was injected (5 animals each group) as above for a two-week course. Tumor size and weight were measured at the end of treatment. For BrdU in vivo labeling, the animals were injected i.p. with 0.5 ml of a 10-mM BrdU solution (Invitrogen) 2 hours before sacrifice. For experiments involving LNCaP-BclxL SB216763 subline cells (Liao 2005) were inoculated as above, and SB216763 treatment was started two weeks later when palpable xenografts were established. The SB216763 for animal use was purchased from Biomol (Plymouth Meeting, Pa.) and dissolved in a formula containing 50% N,N-dimethylacetamide (“DMA”), 45% polyethylene glycol 400 (“PEG-400”) and 5% Tween-80. SB216763 (2 mg/kilogram/bodyweight) or the solvent in 20 μl volume was injected i.p. three times a week. Tumor growth was monitored as discussed herein. […]

AR-null PC-3 cells = details: Mazor 2004; cited from earlier work
PC-3 cells [5] = assay: cell cycle analysis by flow cytometry (PI); format: cell-based, human; details: 12 hours treatment
Method: (§3) For cell cycle analysis, serum-starved cells were left untreated or treated with different inhibitors for various time periods as indicated in the figures. After trypsinization, the cells were fixed and stained with propidium iodide (“PI”). Cell cycle distribution of PI-labeled cells was analyzed on a fluorescence activated cell sorter (Model EPICS XL-MCL, Beckman-Coulter Co., Fullerton, Calif.) as described previously (Miyake 2001).
(§4) The effect of GSK-3β SB216763 on cell cycle distribution in AR-null PC-3 and androgen-insensitive C4-2 cell lines were also examined.

C4-2 cells [6] = assay: cell cycle analysis by flow cytometry (PI); format: cell-based, human; details: 12 hours treatment
Method: as §3, §4

[7] = estimated serum lithium level in mice; format: in vivo; details: about 2 mg/kg of body weight, estimated (Moore 2002)
Description: Based on these preliminary results, therapeutically effective dosage levels include those substantially below those used for treatment of bipolar disorders with lithium in humans, which are reported to result in a serum level between about 0.2 and 1.5 mEq/L (Noble 2005), and is usually over 0.8 mEq/L.

[8] = humans; cited from earlier work

[Cl-].[K+] [KCl, potassium chloride]
cell growth inhibition (MTT) (PC-3 cells [1]): did not cause any significant inhibition | cell growth inhibition (MTT) (C4-2 cells [2]): did not cause any significant inhibition | cell growth inhibition (MTT) (LNCaP cells [3]): did not cause any significant inhibition

[Cl-].[Na+] [NaCl, sodium chloride]
cell growth inhibition (MTT) (PC-3 cells [1]): did not cause any significant inhibition | cell growth inhibition (MTT) (C4-2 cells [2]): did not cause any significant inhibition | cell growth inhibition (MTT) (LNCaP cells [3]): did not cause any significant inhibition

O=C1Nc2cc(Br)ccc2/C1=C1/Nc2ccccc2/C1=N\O [BIO, 6-bromoindirubin-3′-oxime]
p21CIP1 protein expression (Western blot) (LNCaP cells [4]): increased dramatically | protein levels of cyclins A and E, cdc6 and cdc25C (Western blot) (LNCaP cells [4]; dose-dependent): significantly reduced | cell growth (MTT) (LNCaP cells [3]): significantly suppressed

Cn1cc(C2=C(c3ccc(Cl)cc3Cl)C(=O)NC2=O)c2ccccc21 [SB216763, 3-(2,4-Dichlorophenyl)-4-(1-methyl-1H-indol-3yl)-1H-pyrrole-2,5-dione]
side effects (LNCaP-BclxL xenografts; SB216763 2 mg/kg i.p.): No side effects | tumor growth vs control animals (LNCaP-BclxL xenografts; SB216763 2 mg/kg i.p. every two days, palpable tumors): largely suppressed | treatment duration after which difference in tumor volume became significant (LNCaP-BclxL xenografts; SB216763 2 mg/kg i.p. vs vehicle): 5 week | growth of AR-null PC-3 cells (AR-null PC-3 cells): did not affect growth | cell growth (MTT) (LNCaP cells [3]): significantly suppressed | cell cycle distribution (S-phase arrest) (PC-3 cells [5]): arrested these cells in S-phase | cell cycle distribution (S-phase arrest) (C4-2 cells [6]): arrested these cells in S-phase

[Li] [lithium]
serum level [7]: about 0.02 mEq/L | usual serum level at dosages used for treatment of bipolar disorders [8]: over 0.8 mEq/L
